25 compounds from publication PMC11547513, “Design, Synthesis and Biological Activity Evaluation of β-Carboline Derivatives Containing Nitrogen Heterocycles” (Molecules, 2024) can be followed below.

Like-named read-outs stand apart in the source and are kept apart here.

The subject of series [1] is K562 (human chronic myeloid leukemia cell). The series can be described thus: MTT assay, in vitro cytotoxicity on K562. Conditions: Homo sapiens, K562, read-out: Inhibitory Activity/% at 10 μM, K562.
From the text: (§1) Cells were purchased from the Cell Bank of the Chinese Academy of Sciences (Kunming, China).
Series [2] concerns T47D (human breast cancer cell). The series can be described thus: MTT assay, in vitro cytotoxicity on T47D. Conditions: read-out: Inhibitory Activity/% at 10 μM, T47D.
From the text: as §1
The subject of series [3] is Hek-293T (human embryonic kidney cells). The series can be described thus: MTT assay, in vitro cytotoxicity on normal Hek-293T. The following applies: read-out: Inhibitory Activity/% at 10 μM, Hek-293T.
From the text: as §1
Series [4] deals with A549 (human lung cancer cell). The series can be described thus: MTT assay, in vitro cytotoxicity on A549. Conditions: A549, read-out: Inhibitory Activity/% at 10 μM, A549.
From the text: as §1
Series [5] relates to PC-3 (human prostate cancer cell). The series can be described thus: MTT assay, in vitro cytotoxicity on PC-3. The following applies: 10 μM, average of three replicates, "/" means no anticancer activity; for inhibition at 10 µM: Homo sapiens.
From the text: as §1
The mark [6] stands for this setting: read-out: Inhibitory Activity/% at 10 μM, PC-3, Table 1 (7 series).
Setting [7] is: read-out: Inhibitory Activity/% at 10 μM, PC-3, Table 2 (8 series).

`CS(=O)(=O)N1CCN(C(=O)CSc2nnc(-c3cc4c(cn3)[nH]c3ccccc34)o2)CC1` [Compound 7m] showed a melting point of 174.3 to 175.6 °C. Also, the inhibition at 10 µM in series [1] stood at 33 ± 1.83%. For the same compound, the inhibition at 10 µM in series [2] came to 25.2 ± 4.1%. In series [3], the inhibition at 10 µM came out at 29.5 ± 3.33%. Further, the inhibition at 10 µM in series [4] is 14.7 ± 3.64%. Besides, the inhibition at 10 µM in series [5] (setting [6]) stood at 20 ± 3.22%.
On to `O=C(CSc1nnc(-c2cc3c(cn2)[nH]c2ccccc23)o1)N1CCOCC1` [Compound 7l], for which the melting point is 228.3 to 229.6 °C. The inhibition at 10 µM in series [1] was found to be 9.28 ± 2.51%. Further, the inhibition at 10 µM in series [2] worked out at 19.3 ± 5.03%. The inhibition at 10 µM in series [3] was 11.2 ± 7.91%. Further, the inhibition at 10 µM in series [4] is 12.2 ± 6.14%. In addition, the inhibition at 10 µM in series [5] (setting [6]) was 39.6 ± 5.06%.
Take `O=C(CSc1nnc(-c2cc3c(cn2)[nH]c2ccccc23)o1)N1CCN(c2ccc(F)cc2)CC1` [Compound 7d]: the inhibition at 10 µM in series [1] was found to be 17.8 ± 3.97%; in series [2] it was 25.4 ± 4.82%; in series [3] it was 36.9 ± 1.74%; in series [4], 11.2 ± 0.69%; in series [5] (setting [6]), 26.5 ± 5.76%.
For `COc1cc(-c2nc(-c3nnc(SCC(=O)N4CCN(c5ccc(Cl)c(Cl)c5)CC4)o3)cc3c2[nH]c2ccccc23)cc(OC)c1OC` [Compound 8a], the inhibition at 10 µM in series [1] was found to be 21 ± 1.65%; in series [2], 7.49 ± 3.25%; in series [3], 29.4 ± 2.16%; in series [4] it was 7.02 ± 4.02%; in series [5] (setting [7]), 7.73 ± 1.33%.
As for `O=C(CSc1nnc(-c2cc3c(cn2)[nH]c2ccccc23)o1)N1CCN(c2ccc(Cl)c(Cl)c2)CC1` [Compound 7a], the melting point is 168.3 to 170.9 °C. For the same compound, the inhibition at 10 µM in series [1] turned out to be 0.85 ± 1.01%. Further, the inhibition at 10 µM in series [2] stood at 32.3 ± 3.36%. The inhibition at 10 µM in series [3] turned out to be 18.6 ± 0.71%. In series [4], the inhibition at 10 µM turned out to be 0.72 ± 1.63%. The inhibition at 10 µM in series [5] (setting [6]) turned out to be 29.58 ± 0.25%.
In the case of `COc1cc(-c2nc(-c3nnc(SCC(=O)N4CCN(C5CCCCC5)CC4)o3)cc3c2[nH]c2ccccc23)cc(OC)c1OC` [Compound 8p], the inhibition at 10 µM in series [1] is 44.6 ± 4.1%; in series [2], 54.2 ± 4.87%; in series [3], 28.9 ± 3.22%; in series [4], 8.84 ± 0.36%; in series [5] (setting [7]), 19.1 ± 2.79%.
Turning to `O=C(CSc1nnc(-c2cc3c(cn2)[nH]c2ccccc23)o1)N1CCN(c2ncccn2)CC1` [Compound 7g], the melting point lay within 212.6 to 213.3 °C. In addition, in series [1], the inhibition at 10 µM turned out to be 0.05 ± 2.99%. For the same compound, in series [2], the inhibition at 10 µM was 42.5 ± 3.19%. In addition, the inhibition at 10 µM in series [3] worked out at 34.1 ± 6.8%. Moreover, the inhibition at 10 µM in series [4] was less than 0%. The inhibition at 10 µM in series [5] (setting [6]) worked out at 14.8 ± 2.23%.
`COc1cc(-c2nc(-c3nnc(SCC(=O)N4CCN(c5ccc(Br)cc5)CC4)o3)cc3c2[nH]c2ccccc23)cc(OC)c1OC` [Compound 8b] displayed a melting point of 155.8 to 157.9 °C. Also, in series [1], the inhibition at 10 µM turned out to be 10.8 ± 2.32%. The inhibition at 10 µM in series [2] worked out at 10.6 ± 1.16%. Moreover, in series [3], the inhibition at 10 µM came out at 38.4 ± 3.85%. In addition, in series [4], the inhibition at 10 µM turned out to be 5.03 ± 5.42%. Besides, the inhibition at 10 µM in series [5] (setting [7]) came out at 8.91 ± 5.34%.
Take `COc1cc(-c2nc(-c3nnc(SCC(=O)N4CCN(S(C)(=O)=O)CC4)o3)cc3c2[nH]c2ccccc23)cc(OC)c1OC` [Compound 8m]: the inhibition at 10 µM in series [1] was 30.2 ± 2.16%; in series [2], less than 0%; in series [3], 21 ± 2.61%; in series [4], 2.7 ± 1.78%; in series [5] (setting [7]), 46.58 ± 0.35%.
As for `O=C(CSc1nnc(-c2cc3c(cn2)[nH]c2ccccc23)o1)N1CCN(c2ccc(Br)cc2)CC1` [Compound 7b], the melting point lay in the range of 275.4 to 277.7 °C. The inhibition at 10 µM in series [1] was 8.98 ± 3.13%. Also, the inhibition at 10 µM in series [2] was found to be 42.6 ± 1.65%. In addition, the inhibition at 10 µM in series [3] turned out to be 33.3 ± 0.8%. Further, the inhibition at 10 µM in series [4] was found to be 13.6 ± 7.88%. In addition, in series [5] (setting [6]), the inhibition at 10 µM was 29.09 ± 0.27%.
In the case of `COc1ccc(N2CCN(C(=O)CSc3nnc(-c4cc5c([nH]c6ccccc65)c(-c5cc(OC)c(OC)c(OC)c5)n4)o3)CC2)cc1` [Compound 8f], the melting point lay in the range of 156.5 to 158.6 °C. Further, the inhibition at 10 µM in series [1] was determined as 7.87 ± 5.82%. The inhibition at 10 µM in series [2] was 6.91 ± 5.13%. For the same compound, in series [3], the inhibition at 10 µM was determined as 20.2 ± 4.34%. In addition, in series [4], the inhibition at 10 µM was determined as 13.2 ± 0.56%. Moreover, the inhibition at 10 µM in series [5] (setting [7]) was 34.5 ± 0.68%.
Take `O=c1[nH]cc(F)c(=O)[nH]1` [5-Fluorouracil, reference compound]: the inhibition at 10 µM in series [4] is 40.6 ± 2.04%.
Turning to `COc1cc(-c2nc(-c3nnc(SCC(=O)N4CCN(c5ccc(Cl)cc5)CC4)o3)cc3c2[nH]c2ccccc23)cc(OC)c1OC` [Compound 8e], the inhibition at 10 µM in series [1] was 54.4 ± 2.32%; in series [2], less than 0%; in series [3] it was 23.4 ± 3.77%; in series [4], 26.8 ± 2.6%; in series [5] (setting [7]), 26.9 ± 4.39%.
In the case of `COc1cc(-c2nc(-c3nnc(SCC(=O)N4CCN(c5ccc(F)cc5F)CC4)o3)cc3c2[nH]c2ccccc23)cc(OC)c1OC` [Compound 8h], the melting point lay within 178.1 to 179.4 °C. For the same compound, the inhibition at 10 µM in series [1] worked out at 2.46 ± 1.78%. The inhibition at 10 µM in series [2] was less than 0%. Further, the inhibition at 10 µM in series [3] was 29.6 ± 3.04%. Besides, the inhibition at 10 µM in series [4] was 17.9 ± 2.91%. The inhibition at 10 µM in series [5] (setting [7]) is 12.2 ± 1.13%.
On to `O=C(CSc1nnc(-c2cc3c(cn2)[nH]c2ccccc23)o1)N1CCN(c2ccc(O)cc2)CC1` [Compound 7c], for which the melting point lay within 163.9 to 165.8 °C. Besides, the inhibition at 10 µM in series [1] worked out at 18.1 ± 2.63%. Besides, the inhibition at 10 µM in series [2] came to 40.2 ± 0.9%. In addition, the inhibition at 10 µM in series [3] amounted to 47.3 ± 4.59%. The inhibition at 10 µM in series [4] turned out to be 16.8 ± 2.39%. The inhibition at 10 µM in series [5] (setting [6]) was 22.7 ± 2.19%.
In turn, `O=C(CSc1nnc(-c2cc3c(cn2)[nH]c2ccccc23)o1)N1CCN(c2ccccc2)CC1` [Compound 7i] came in with a melting point of 148.9 to 150.6 °C. For the same compound, the inhibition at 10 µM in series [1] is 23.6 ± 3.59%. The inhibition at 10 µM in series [2] came out at 54.2 ± 3.88%. Also, in series [3], the inhibition at 10 µM worked out at 84.14 ± 0.79%. For the same compound, the inhibition at 10 µM in series [4] is 5.2 ± 7.21%. Further, the inhibition at 10 µM in series [5] (setting [6]) is 35.6 ± 1.89%.
Consider `O=C(CSc1nnc(-c2cc3c(cn2)[nH]c2ccccc23)o1)N1CCN(C2CCCCC2)CC1` [Compound 7p], for which the melting point lay within 158.8 to 161.4 °C. For the same compound, the inhibition at 10 µM in series [1] was 8.68 ± 6.83%. The inhibition at 10 µM in series [2] came to 50.7 ± 5.79%. The inhibition at 10 µM in series [3] came to 61.5 ± 3.24%. The inhibition at 10 µM in series [4] is 17 ± 2.1%. Besides, the inhibition at 10 µM in series [5] (setting [6]) came out at 51.2 ± 3.11%.
`COc1cc(-c2nc(-c3nnc(SCC(=O)Nc4ccc(F)cc4)o3)cc3c2[nH]c2ccccc23)cc(OC)c1OC` [Compound 8k] registered a melting point of 235.8 to 237.4 °C. The inhibition at 10 µM in series [1] came out at 33.5 ± 8.79%. Besides, in series [2], the inhibition at 10 µM came out at 6.94 ± 3.38%. Moreover, in series [3], the inhibition at 10 µM came out at 29.6 ± 2.33%. Moreover, the inhibition at 10 µM in series [4] was found to be 33.2 ± 0.45%. In addition, the inhibition at 10 µM in series [5] (setting [7]) is more than 40%. Moreover, the “Inhibitory Activity/% at 10 μM, PC-3” value in series [5] (Table 2 (8 series)) is 44.72 ± 1.82%.
As to `COc1cccc(N2CCN(C(=O)CSc3nnc(-c4cc5c(cn4)[nH]c4ccccc45)o3)CC2)c1` [Compound 7j], the inhibition at 10 µM came out at 13.6 ± 1.21% in series [1]; 39.9 ± 3.5% in series [2]; 13.4 ± 0.68% in series [3]; 34 ± 0.87% in series [4]; 14.7 ± 4.49% in series [5] (setting [6]).
Regarding `O=C(CSc1nnc(-c2cc3c(cn2)[nH]c2ccccc23)o1)Nc1ccc(CN2CCOCC2)cc1` [Compound 7q], the inhibition at 10 µM in series [1] came to 17 ± 1.86%; in series [2], 46.4 ± 2.86%; in series [3], 32.3 ± 2.21%; in series [4] it was 8.67 ± 0.64%; in series [5] (setting [6]), 29.5 ± 1.38%.
On the same counts, the results for `O=C(CSc1nnc(-c2cc3c(cn2)[nH]c2ccccc23)o1)N1CCN(C(c2ccc(F)cc2)c2ccc(F)cc2)CC1` [Compound 7o] are 1.26 ± 3.66%, 25 ± 1.43%, 35.3 ± 3.81%, less than 0% and 5.36 ± 3.63%.
For the compound `COc1cc(-c2nc(-c3nnc(SCC(=O)N4CCN(c5ccccc5)CC4)o3)cc3c2[nH]c2ccccc23)cc(OC)c1OC` [Compound 8i], the inhibition at 10 µM is 25.5 ± 2.72% in series [1]; 0.56 ± 3.38% in series [2]; 25.6 ± 3.44% in series [3]; 18.4 ± 1.8% in series [4]; 21.3 ± 4.8% in series [5] (setting [7]).
The corresponding values for `COc1cccc(N2CCN(C(=O)CSc3nnc(-c4cc5c([nH]c6ccccc65)c(-c5cc(OC)c(OC)c(OC)c5)n4)o3)CC2)c1` [Compound 8j] are 25 ± 3.95%, less than 0%, 20.4 ± 1.51%, 0.13 ± 4.62% and 15.7 ± 3.93%.
On to `COc1ccc(N2CCN(C(=O)CSc3nnc(-c4cc5c(cn4)[nH]c4ccccc45)o3)CC2)cc1` [Compound 7f], for which the inhibition at 10 µM was determined as 21.5 ± 3.02% in series [1]; 42.4 ± 4.23% in series [2]; 56.8 ± 2.21% in series [3]; 13.5 ± 6.97% in series [4]; 11.5 ± 2.78% in series [5] (setting [6]).
The corresponding values for `O=C(CSc1nnc(-c2cc3c(cn2)[nH]c2ccccc23)o1)N1CCN(c2ccc(F)cc2F)CC1` [Compound 7h] are 8.23 ± 4.12%, 46.4 ± 2.12%, 47.5 ± 0.78%, 2.16 ± 3.56% and 10.7 ± 2.68%.
